In patent US7538085B2, “Peptide deformylase inhibitors as novel antibiotics” (The Ohio State University Research Foundation, priority 2003, dated 2009):
≈ marks a conversion by molar mass, not a printed value. Where “and” joins values, the source holds several entries; their conditions need not be identical. Identical values can stand only once. Like-named read-outs stand apart in the source and are kept apart here.

Tests used:
[1] = biological target: T1, Co(II)-substituted E. coli PDF (Escherichia coli, UniProt P0A6K3); test: PDF assay coupled to formate dehydrogenase; assay type: biochemical
T1 construct: made in house

MMP-1 = biological target: T2, MMP-1 (Homo sapiens, UniProt P03956); test: Inhibition of human matrix metalloproteases; assay type: biochemical; details: read-out: percentage of MMP-1 activity remaining; for remaining activity at 1 µM: inhibitor 1.0 μM; for remaining activity at 10 µM: inhibitor 10 μM
T2 sequence (P03956 100-469): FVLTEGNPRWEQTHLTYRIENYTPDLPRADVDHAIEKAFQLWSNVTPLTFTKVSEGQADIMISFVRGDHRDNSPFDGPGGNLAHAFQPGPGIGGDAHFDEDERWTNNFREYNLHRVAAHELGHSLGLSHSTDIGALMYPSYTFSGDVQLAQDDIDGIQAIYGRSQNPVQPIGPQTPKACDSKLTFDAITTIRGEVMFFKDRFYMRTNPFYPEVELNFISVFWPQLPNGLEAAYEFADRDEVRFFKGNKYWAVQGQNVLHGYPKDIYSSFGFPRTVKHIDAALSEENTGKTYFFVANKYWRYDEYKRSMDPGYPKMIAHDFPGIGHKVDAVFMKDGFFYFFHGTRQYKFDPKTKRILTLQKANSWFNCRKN
Procedure: (§1) Inhibition of Metalloproteases (MMP) Several of the inhibitors were tested for inhibition of human matrix metalloproteases, which are often used as indicators of inhibitor selectivity (no inhibition of MMP is desired). Each inhibitor was tested at two different concentrations (1.0 and 10 μM). The values reported are the percentage of MMP activity remaining in the presence of added inhibitor.

MMP-3 = MMP-3 (Homo sapiens, UniProt P08254); test: Inhibition of human matrix metalloproteases; assay type: biochemical; details: read-out: percentage of MMP-3 activity remaining; for remaining activity at 1 µM: inhibitor 1.0 μM; for remaining activity at 10 µM: inhibitor 10 μM
Procedure: as §1

MMP-9 = MMP-9 (Homo sapiens, UniProt P14780); test: Inhibition of human matrix metalloproteases; assay type: biochemical; details: read-out: percentage of MMP-9 activity remaining; for remaining activity at 1 µM: inhibitor 1.0 μM; for remaining activity at 10 µM: inhibitor 10 μM
Procedure: as §1

MMP2 = biological target: T3, MMP2 (Homo sapiens, UniProt P08253); test: Inhibition of human matrix metalloproteases; assay type: biochemical; details: read-out: percentage of MMP2 activity remaining; for remaining activity at 1 µM: inhibitor 1.0 μM; for remaining activity at 10 µM: inhibitor 10 μM
T3 sequence (P08253 110-660): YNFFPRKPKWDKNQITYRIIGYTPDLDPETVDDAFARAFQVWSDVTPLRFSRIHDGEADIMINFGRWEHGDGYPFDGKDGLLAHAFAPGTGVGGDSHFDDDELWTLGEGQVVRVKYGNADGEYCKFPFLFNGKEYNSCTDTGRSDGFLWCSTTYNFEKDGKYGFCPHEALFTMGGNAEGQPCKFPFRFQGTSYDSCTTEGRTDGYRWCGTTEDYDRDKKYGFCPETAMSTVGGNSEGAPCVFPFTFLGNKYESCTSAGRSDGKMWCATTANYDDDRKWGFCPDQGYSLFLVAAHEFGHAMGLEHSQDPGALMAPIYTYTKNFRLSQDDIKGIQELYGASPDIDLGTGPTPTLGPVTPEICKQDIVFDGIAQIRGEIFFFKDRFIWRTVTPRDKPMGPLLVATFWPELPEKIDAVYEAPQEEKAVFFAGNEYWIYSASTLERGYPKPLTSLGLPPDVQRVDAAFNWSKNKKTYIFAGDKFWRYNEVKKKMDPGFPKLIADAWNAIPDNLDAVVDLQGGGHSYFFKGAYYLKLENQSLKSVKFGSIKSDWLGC
Procedure: as §1

B. subtilis = test: Antibacterial activity (cell growth, MIC); assay type: cell-based; details: Bacillus subtilis
Procedure: (§2) FIG. 5 Inhibition of B. subtilis (A) and E. coli (B) cell growth by inhibitor 2. An overnight culture was diluted 1000-fold into 2 mL of fresh LB medium containing the specified concentrations of inhibitor 2 and incubated at 37° C. Cell densities were measured at the specified times on a UV-vis spectrophotometer.
(§3) The in vitro antibacterial activity of the cyclic inhibitor was tested against E. coli and Bacillus subtilis, the representative Gram-negative and Gram-positive bacteria, respectively.
(§4) Antimicrobial Susceptibility Testing. For Escherichia coli and Bacillus subtilis, cell growth was monitored on the Lambda-20 UV/Vis spectrophotometer at 600 nm. A single bacterial colony from a plate culture was grown overnight in LB media and was diluted 1000-fold into 2 mL of fresh growth medium containing 0-64 μg/mL of test agent in a 5-mL glass test tube shaken at a speed of 250 rpm. Cell growth (at 37° C.) was monitored for 0-600 min.
(§5) Antibacterial Activity of PDF Inhibitors Inhibitors 2-7E were tested against two or more bacterial strains for antibacterial activities.

E. coli = test: Antibacterial activity (cell growth, MIC); assay type: cell-based; details: Escherichia coli
Procedure: as §2, §3, §4, §5

E. faecalis (ATCC 29212) = test: Antibacterial activity (MIC); assay type: cell-based; details: Enterococcus faecalis, ATCC29212
Procedure: as §5

[2] = system: H. influenzae (ATCC 31517); test: Antibacterial activity (MIC); assay type: cell-based; details: Haemophilus influenzae, ATCC31517
Procedure: as §5

[3] = system: M. catarrhalis (ATCC 37054); test: Antibacterial activity (MIC); assay type: cell-based; details: Moraxella catarrhalis, ATCC37054
Procedure: as §5

S. aureus (ATCC 29213) = test: Antibacterial activity (MIC); assay type: cell-based; details: Staphylococcus aureus, ATCC29213
Procedure: as §5

[4] = system: S. pneumoniae (ATCC 49619); test: Antibacterial activity (MIC); assay type: cell-based; details: Streptococcus pneumoniae, ATCC49619
Procedure: as §5

[5] = system: S. pneumoniae (ATCC 6301); test: Antibacterial activity (MIC); assay type: cell-based; details: Streptococcus pneumoniae, ATCC6301
Procedure: as §5

[6] = system: S. pneumoniae (ATCC 6303); test: Antibacterial activity (MIC); assay type: cell-based; details: Streptococcus pneumoniae, ATCC6303
Procedure: as §5

[7] = Stability of inhibitors in rat plasma; assay type: in vitro ADME; details: 37° C., LC-MS
Procedure: FIG. 7 Comparison of the in vitro stability of PDF inhibitors 6 (cyclic) and 9 (acyclic) in rat plasma.
Stability of Inhibitors Inhibitors 6E and comparative compound 9 were chosen to test for the effect of cyclization on inhibitor stability. They both have an L-lysine as the P2′ residue and are expected to be sensitive to proteolytic degradation by trypsin-like enzymes. Both inhibitors were incubated in rat plasma at 37° C. and aliquots were withdrawn at various times and analyzed by LC-MS. […] Our attempts to identify the degradation products by mass spectrometry failed.

E. coli PDF = biological target: T4, E. coli PDF (Escherichia coli, UniProt P0A6K3); test: Aminopeptidase assay of PDF inhibition; assay type: biochemical
T4 construct: made in house
Procedure: Aminopeptidase Assay of Compound 2 The inhibition constant was also determined independently using and aminopeptidase assay.^37 Assay reactions (total volume of 500 μL) containing 50 mM Hepes (pH 7.0), 150 mM NaCl, 8.0 nM E. coli PDF, and 0-50 nM inhibitor 2 were incubated on ice for 2 h. Prior to reaction initiation, the mixture was brought to room temperature for 10 min. The PDF reaction was then initiated by the addition of substrate formyl-Met-Leu-p-nitronilide (final concentration 110 μM) and allowed to proceed for 3 min at room temperature before being quenched by heating at 95° C. for 10 min (the inactivation process is usually complete within the first 30 s). After cooling to room temperature, 1.0 unit of Aeromonas aminopeptidase (AAP) was added to the solution and the mixture was incubated for 15 min at room temperature. The absorbance at 405 nm was measured on a UV-Vis spectrophotometer. […] For all end-point assay reactions, the substrate to product conversion was kept at <20%.

[8] = system: human matrix metalloproteases; test: Inhibition of human matrix metalloproteases, overall statement; assay type: biochemical; details: MMP-1, MMP2, MMP-3, MMP-9; 1.0 and 10 μM
Procedure: as §1, with “inhibitor. […] The acyclic inhibitors are flexible and can adopt different conformations to fit the active sites of both PDF and MMP's.” for “inhibitor.”

[9] = formate dehydrogenase-coupled assay, 4 nM E. coli PDF, pH 7.0, read-out: K1 (apparent inhibition constant)

Chain of MMP-3 (P08254 100-477): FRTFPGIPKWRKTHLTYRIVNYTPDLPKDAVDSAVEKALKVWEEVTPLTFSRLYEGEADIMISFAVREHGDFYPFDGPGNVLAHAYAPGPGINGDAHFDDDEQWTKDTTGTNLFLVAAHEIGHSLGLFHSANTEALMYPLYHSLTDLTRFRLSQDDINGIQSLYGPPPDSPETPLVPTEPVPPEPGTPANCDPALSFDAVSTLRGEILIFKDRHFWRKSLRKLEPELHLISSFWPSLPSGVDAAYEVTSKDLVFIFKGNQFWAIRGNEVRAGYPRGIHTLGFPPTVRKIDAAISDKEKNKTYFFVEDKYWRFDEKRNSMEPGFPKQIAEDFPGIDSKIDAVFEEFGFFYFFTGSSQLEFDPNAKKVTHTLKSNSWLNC
T1 sequence (P0A6K3 whole entry): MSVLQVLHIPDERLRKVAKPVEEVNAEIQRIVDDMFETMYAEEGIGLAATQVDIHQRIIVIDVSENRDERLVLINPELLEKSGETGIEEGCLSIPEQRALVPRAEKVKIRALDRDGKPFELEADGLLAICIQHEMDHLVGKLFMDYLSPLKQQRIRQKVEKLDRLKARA
Chain of MMP-9 (P14780 94-707): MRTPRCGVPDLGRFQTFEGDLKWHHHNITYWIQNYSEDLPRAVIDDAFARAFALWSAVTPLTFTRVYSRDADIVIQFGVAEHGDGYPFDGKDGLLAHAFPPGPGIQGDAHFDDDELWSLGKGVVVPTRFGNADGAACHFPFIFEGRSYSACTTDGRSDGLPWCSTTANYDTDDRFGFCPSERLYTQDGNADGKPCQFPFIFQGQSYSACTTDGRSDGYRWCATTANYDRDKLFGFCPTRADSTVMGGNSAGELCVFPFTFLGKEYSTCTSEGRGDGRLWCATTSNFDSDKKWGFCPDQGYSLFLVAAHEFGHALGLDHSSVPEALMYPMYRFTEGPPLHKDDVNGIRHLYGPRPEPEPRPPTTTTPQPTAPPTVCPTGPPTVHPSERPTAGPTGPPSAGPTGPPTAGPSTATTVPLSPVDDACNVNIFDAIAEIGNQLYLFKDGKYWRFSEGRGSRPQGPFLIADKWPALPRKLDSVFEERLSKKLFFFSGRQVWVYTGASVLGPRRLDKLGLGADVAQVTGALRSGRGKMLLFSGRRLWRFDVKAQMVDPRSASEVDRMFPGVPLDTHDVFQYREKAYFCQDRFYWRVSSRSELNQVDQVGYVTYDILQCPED
T4 sequence (P0A6K3 whole entry): as the sequence (P0A6K3 whole entry) above

| SMILES | Ki [1] | remaining activity at 1 µM (MMP-1) | remaining activity at 10 µM (MMP-1) | remaining activity at 1 µM (MMP-3) | remaining activity at 10 µM (MMP-3) | remaining activity at 1 µM (MMP-9) | remaining activity at 10 µM (MMP-9) | remaining activity at 1 µM (MMP2) | remaining activity at 10 µM (MMP2) | MIC (B. subtilis; read-out: MIC) | MIC (E. coli) | further results |
| --- | --- | --- | --- | --- | --- | --- | --- | --- | --- | --- | --- | --- |
| NCCCC[C@@H]1NC(=O)[C@@H](CN(O)C=O)CCCCCCCCCCCCCCNC1=O [Compound 7E] | 36 ± 9 nM | 99% | 93% | 100% | 94% | 96% | 95% | 94% | 85% | > 32 µg/mL | > 32 µg/mL | MIC (E. faecalis (ATCC 29212)): 32 µg/mL (≈ 70.4 µM); MIC [2]: 32 µg/mL (≈ 70.4 µM); MIC [3]: 1 µg/mL (≈ 2.2 µM); MIC (S. aureus (ATCC 29213)): 32 µg/mL (≈ 70.4 µM); MIC [4]: > 32 µg/mL; MIC [5]: > 32 µg/mL; MIC [6]: > 32 µg/mL |
| NCCCC[C@@H]1NC(=O)[C@@H](CN(O)C=O)CCCCCCCCCNC1=O [Compound 6E] | 3 ± 1.3 nM |  |  |  |  |  |  |  |  | ~8 µg/mL | 4 to 8 µg/mL (≈ 10.4 to 20.8 µM) | degradation (loss) in rat plasma after 5 h [7]: no detectable degradation |
| CC(C)(C)[C@@H]1NC(=O)[C@@H](CN(O)C=O)CCCCCCCCCCNC1=O [Compound 3E] |  |  |  |  |  |  |  |  |  |  |  | Ki [1, 9]: 0.4 nM |
| CC(C)(C)C1NC(=O)C(CN(O)C=O)CCCCCCCCCNC1=O (centres unmarked) [Compound 2, N-(3-tert-Butyl-2,5-dioxo-1,4-diaza-cyclopentadec-6-ylmethyl)-N-hydroxy-formamide] | 0.67 ± 0.2 nM | 93% | 86% | 97% | 91% | 95% | 91% | 96% | 92% | 0.7 to 1.4 µg/mL | ~32 µM and ~12 µg/mL | fold more potent against PDF than the acyclic parent/counterpart ([1]; cyclic versus acyclic inhibitor): ~10 fold; Ki (E. coli PDF): 0.33 ± 0.15 nM; MIC (B. subtilis; read-out: minimal inhibitory concentration (MIC)): 2 to 4 µM; MIC (E. faecalis (ATCC 29212)): > 32 µg/mL; MIC [2]: 0.5 µg/mL (≈ 1.35 µM); MIC [3]: 0.62 µg/mL (≈ 1.68 µM); MIC (S. aureus (ATCC 29213)): 16 µg/mL (≈ 43.3 µM); MIC [4]: 4 µg/mL (≈ 10.8 µM); MIC [5]: 4 µg/mL (≈ 10.8 µM); MIC [6]: 2 µg/mL (≈ 5.41 µM) |
| CCCCCCNC(=O)[C@H](CCCCN)NC(=O)[C@H](CCCCC)CN(O)C=O [Compound 9C, reference compound] |  | 50% | 0% | 19% | 1% | 39% | 6% | 27% | 2% |  |  | degradation (loss) in rat plasma after 5 h [7]: approximately 25%; inhibition of the MMPs (in words) [8]: substantial inhibition of all of the MMP's |
| CC(C)(C)[C@@H]1NC(=O)[C@@H](CN(O)C=O)CCCCCCCNC1=O [Compound 1E] |  | 100% | 99% | 97% | 80% | 92% | 89% | 90% | 85% |  |  | Ki [1, 9]: 14 ± 3 nM |
| CCCC[C@H](CN(O)C=O)C(=O)N[C@@H](CCCCN)C(=O)Nc1ccccc1 [Compound 10C, reference compound] | 18 ± 1 nM | 50% | 3% | 32% | 27% | 46% | 11% | 66% | 45% |  |  | inhibition of the MMPs (in words) [8]: substantial inhibition of all of the MMP's |
| CC(=O)NCCCC[C@@H]1NC(=O)[C@@H](CN(O)C=O)CCCCCCCCCNC1=O [Compound 8E] | 12 ± 4 nM | 97% | 87% | 100% | 92% | 92% | 92% | 83% | 80% |  |  |  |
| CC(C)(C)[C@@H]1NC(=O)[C@@H](CN(O)C=O)CCCCCCCCCCCCCCNC1=O [Compound 5E] | 25 ± 6 nM | 93% | 92% | 97% | 96% | 96% | 94% | 100% | 100% | ~16 µg/mL | > 24 µg/mL | MIC (E. faecalis (ATCC 29212)): > 32 µg/mL; MIC [2]: > 32 µg/mL; MIC [3]: < 0.031 µg/mL; MIC (S. aureus (ATCC 29213)): > 32 µg/mL; MIC [4]: 8 µg/mL (≈ 18.2 µM); MIC [5]: 8 µg/mL (≈ 18.2 µM); MIC [6]: 4 µg/mL (≈ 9.1 µM) |
| CC(C)(C)[C@@H]1NC(=O)[C@@H](CN(O)C=O)CCCCCCCCCCCNC1=O [Compound 4E] | 0.22 nM |  |  |  |  |  |  |  |  | ~0.2 µg/mL | > 24 µg/mL |  |
| CCCC[C@H](CN(O)C=O)C(=O)N[C@H](C(=O)N(C)C)C(C)(C)C [BB-3497, reference compound] |  |  |  |  |  |  |  |  |  |  |  | Ki [1, 9]: ~7 nM |
